# Assay results reported in US12358983B2, “Combination of anti CD19 antibody with a BCL-2 inhibitor and uses thereof” (Incyte Corporation, priority 2016, dated 2025).
# Marks after values point to notes of the source that are not given here.
# How the values were obtained:
# MEC-1 cells = assay: Cytotoxicity (ADCC assay with NK effector cells) of MOR00208 and venetoclax alone and in combination in MEC-1 cells; type: cell-based
# Description: Cell lines tested: MEC-1 cells (DSMZ# ACC497). Culture conditions of cell lines used are according to supplier's information. Cell Medium: lscove's Modified Dulbecco's Medium (IMDM), Invitrogen, Cat No.: 31980; RPMI1640, Invitrogen, Cat No.: 31870; GlutaMAX, Invitrogen, CAT No.: 35050; FCS: Sigma CAT No.: F7524 LOT No.: 111M3396. NKs: RPMI1640, with GlutaMAX, Invitrogen, Cat No.: 31870, 10% FCS; Biocoll: Biochrome AG CAT No.: L6115 LOT No.: 0034D; MACS NK cell isolation kit: Miltenyi Biotec CAT No.: 130-092-657 LOT No.: 5150402327; venetoclax: Selleck Chem. CAT No.: S8048 LOT No.: S804803; FCS: Sigma CAT No.: F7524 LOT No.: 111M3396; and RefmAb33 (anti-RSV) with same Fc region as MOR00208.
# The cytotoxic potential of MOR00208 and venetoclax alone and in combination were tested in the MEC-1 cell line (CLL). Target cell killing is measured using the following parameters: venetoclax mono treatment at concentrations of 3 μM, 6.5 μM, and 10 μM; MOR00208 mono treatment at concentrations of 0.01 pM, 0.1 pM, 1 pM, 10 pM, 100 pM and 10 nM, and the combination treatment of the listed venetoclax and MOR00208 concentrations. The following are used as controls: RefnnAb33, NK cells alone, MEC-1 cells alone or DMSO. In the venetoclax mono groups as well as in the MOR00208+venetoclax combination groups, target cells were pretreated with venetoclax or with DMSO control for 24 hours followed by removal of the dead cells prior to the ADCC assay. A dead cell removal kit was used to remove cells killed by the cytotoxic effect of venetoclax. The dead cell removal kit was implemented to mimick the removal of dead cells that also occurs in vivo and to prevent false negative interference of the dead cells with the subsequent ADCC assay. For the ADCC assay, target cells are counted and stained using CFSE at a final concentration of 1 μg/mL. For the control group, i.e. DMSO treated target cells, the effector: target (E:T) cell ratio was adjusted to 2:1, i.e. 1×10E6/nnL effector cells (NK cells) and 5×10E5/mL target cells (MEC-1 cells). […] The ADCC assays were performed as follows: using 96 well plates, 100 μL of MEC-1 target cell suspension was added per well, followed by 100 μL NK effector cell suspension per well. Mixed cell suspensions were centrifuged and resuspended in 100 μL antibody containing medium or the according control solution. The antibodies were diluted in a range of 10 nM-0.01 pM (corresponds to 1.5 μg/mL-1.5 pg/mL) in medium. The ADCC assays were incubated for 2 hours in a CO2-incubator at 37° C. After 10 minutes incubation on ice, 50 μL DAPI solution was added to each well (final concentration 1 μg/mL) and incubated for additional 10 minutes on ice. The ADCC measurements were performed on a BD FACSVerse instrument. Dead target cells were identified as DAPI positive cells.
# Combination Index (CI) calculations are completed in order to determine synergy of the combination of the exemplified anti-CD19 antibody and venetoclax as compared to MOR00208 and venetoclax alone. Such calculations are described in Ting-Chao Chou, Theoretical Basis, Experimental Design, and Computerized Simulation of Synergism and Antagonism in Drug Combination Studies, Pharmacol Rev 58:621-681 (2006), which is incorporated by reference in its entirety and Chou TC, Talalay P, Quantitative analysis of dose-effect relationships: the combined effects of multiple drugs or enzyme inhibitors. Adv Enzyme Regul 22: 27-55 (1984), which is incorporated by reference in its entirety. The methods of Chou-Talalay are carried out using the CI-isobol method.
# The median-effect equation models the effect of an inhibitor (such as a drug) as Fa/Fu=(D/D50)^m, where D is the dose, Fa and Fu is the fraction of the system affected and unaffected by the dose D (Fa+Fu=1); D50 is the dose producing the median effect (e.g. IC50, ED50, LD50). The constant m determines the shape of the dose-effect curve.
# [1] = tested on: TOLEDO human lymphoma cell tumors; assay: Subcutaneous human lymphoma cell xenograft model in SCID mice; conditions: for Median Survival (Days Post-Randomization): humane endpoint tumor volume 2000 mm3; for Median % Increase in Doubling Time (IDT) / Median % Increase in Lifespan (ILS): vs. PEP/PBS Control
# Description: Toledo cell line and culture medium were purchased and provided by Oncodesign. […] The cells are adherent to plastic flasks.
# A statistical test (analysis of variance, ANOVA) was performed to test for homogeneity between groups. MOR208 was injected intraperitoneally (IP) into the peritoneal cavity of mice. Combined substance was administered by oral gavage (per os, PO) via a gavage tube.
# The treatment schedule initiated at D23 was as follows:
# Animals from group 1 received one daily PO administration of PEP and one IP injection twice a week of PBS.
# Animals from group 4 received one IP injection of MOR208 at 11 mg/kg/inj on D23, D27, D30, D34, D37 and D41 followed by a single IP injection of MOR208 at 11 mg/kg/inj on D48 (twice a week).
# The viability and behavior were recorded every day. Body weights and tumor volume were measured twice a week. The length and width of the tumor were measured twice a week with calipers and the volume of the tumor was estimated by the formula:
structure (smiles),measurement,setting,value
"CC1(C)CCC(CN2CCN(c3ccc(C(=O)NS(=O)(=O)c4ccc(NCC5CCOCC5)c([N+](=O)[O-])c4)c(Oc4cnc5[nH]ccc5c4)c3)CC2)=C(c2ccc(Cl)cc2)C1 [Venetoclax, 4-(4-{[2-(4-Chlorophenyl)-4,4-dimethyl-1-cyclohexen-1-yl]methyl}-1-piperazinyl)-N-({3-nitro-4-[(tetrahydro-2H-pyran-4-ylmethyl)amino]phenyl}sulfonyl)-2-(1H-pyrrolo[2,3-b]pyridin-5-yloxy)benzamide, reference compound]",Theoretical Venetoclax Dose,"MEC-1 cells; Exp 1, same effect as MOR00208 1.50E+00 μg/mL + venetoclax 3.0 μM",16.0 µM
same,Theoretical Venetoclax Dose,"MEC-1 cells; Exp 1, same effect as MOR00208 1.50E+00 μg/mL + venetoclax 6.5 μM",23.9 µM
same,Theoretical Venetoclax Dose,"MEC-1 cells; Exp 1, same effect as MOR00208 1.50E+00 μg/mL + venetoclax 10.0 μM",28.4 µM
same,Theoretical Venetoclax Dose,"MEC-1 cells; Exp 1, same effect as MOR00208 1.50E−02 μg/mL + venetoclax 3.0 μM",15.1 µM
same,Theoretical Venetoclax Dose,"MEC-1 cells; Exp 1, same effect as MOR00208 1.50E−02 μg/mL + venetoclax 6.5 μM",21.9 µM
same,Theoretical Venetoclax Dose,"MEC-1 cells; Exp 1, same effect as MOR00208 1.50E−02 μg/mL + venetoclax 10.0 μM",23.0 µM
same,Theoretical Venetoclax Dose,"MEC-1 cells; Exp 1, same effect as MOR00208 1.50E−03 μg/mL + venetoclax 3.0 μM",10.4 µM
same,Theoretical Venetoclax Dose,"MEC-1 cells; Exp 1, same effect as MOR00208 1.50E−03 μg/mL + venetoclax 6.5 μM",12.7 µM
same,Theoretical Venetoclax Dose,"MEC-1 cells; Exp 1, same effect as MOR00208 1.50E−03 μg/mL + venetoclax 10.0 μM",14.0 µM
same,Theoretical Venetoclax Dose,"MEC-1 cells; Exp 1, same effect as MOR00208 1.50E−04 μg/mL + venetoclax 3.0 μM",7.2 µM
same,Theoretical Venetoclax Dose,"MEC-1 cells; Exp 1, same effect as MOR00208 1.50E−04 μg/mL + venetoclax 6.5 μM",8.5 µM
same,Theoretical Venetoclax Dose,"MEC-1 cells; Exp 1, same effect as MOR00208 1.50E−04 μg/mL + venetoclax 10.0 μM",8.9 µM
same,Theoretical Venetoclax Dose,"MEC-1 cells; Exp 1, same effect as MOR00208 1.50E−05 μg/mL + venetoclax 3.0 μM",6.3 µM
same,Theoretical Venetoclax Dose,"MEC-1 cells; Exp 1, same effect as MOR00208 1.50E−05 μg/mL + venetoclax 6.5 μM",6.9 µM
same,Theoretical Venetoclax Dose,"MEC-1 cells; Exp 1, same effect as MOR00208 1.50E−05 μg/mL + venetoclax 10.0 μM",7.4 µM
same,Theoretical Venetoclax Dose,"MEC-1 cells; Exp 1, same effect as MOR00208 1.50E−06 μg/mL + venetoclax 10.0 μM",6.4 µM
same,Actual Venetoclax Effect,"MEC-1 cells; Exp 1, venetoclax 3.0 μM",8.9 % dead cells
same,Actual Venetoclax Effect,"MEC-1 cells; Exp 1, venetoclax 6.5 μM",17.7 % dead cells
same,Actual Venetoclax Effect,"MEC-1 cells; Exp 1, venetoclax 10.0 μM",38.8 % dead cells
same,Theoretical Venetoclax Dose,"MEC-1 cells; Exp 2, same effect as MOR00208 1.50E+00 μg/mL + venetoclax 3.0 μM",11.2 µM
same,Theoretical Venetoclax Dose,"MEC-1 cells; Exp 2, same effect as MOR00208 1.50E+00 μg/mL + venetoclax 6.5 μM",12.5 µM
same,Theoretical Venetoclax Dose,"MEC-1 cells; Exp 2, same effect as MOR00208 1.50E+00 μg/mL + venetoclax 10.0 μM",17.6 µM
same,Theoretical Venetoclax Dose,"MEC-1 cells; Exp 2, same effect as MOR00208 1.50E−02 μg/mL + venetoclax 3.0 μM",10.6 µM
same,Theoretical Venetoclax Dose,"MEC-1 cells; Exp 2, same effect as MOR00208 1.50E−02 μg/mL + venetoclax 6.5 μM",11.9 µM
same,Theoretical Venetoclax Dose,"MEC-1 cells; Exp 2, same effect as MOR00208 1.50E−02 μg/mL + venetoclax 10.0 μM",15.0 µM
same,Theoretical Venetoclax Dose,"MEC-1 cells; Exp 2, same effect as MOR00208 1.50E−03 μg/mL + venetoclax 3.0 μM",8.6 µM
same,Theoretical Venetoclax Dose,"MEC-1 cells; Exp 2, same effect as MOR00208 1.50E−03 μg/mL + venetoclax 6.5 μM",9.4 µM
same,Theoretical Venetoclax Dose,"MEC-1 cells; Exp 2, same effect as MOR00208 1.50E−03 μg/mL + venetoclax 10.0 μM",11.3 µM
same,Theoretical Venetoclax Dose,"MEC-1 cells; Exp 2, same effect as MOR00208 1.50E−04 μg/mL + venetoclax 3.0 μM",7.3 µM
same,Theoretical Venetoclax Dose,"MEC-1 cells; Exp 2, same effect as MOR00208 1.50E−04 μg/mL + venetoclax 6.5 μM",7.9 µM
same,Theoretical Venetoclax Dose,"MEC-1 cells; Exp 2, same effect as MOR00208 1.50E−04 μg/mL + venetoclax 10.0 μM",8.8 µM
same,Theoretical Venetoclax Dose,"MEC-1 cells; Exp 2, same effect as MOR00208 1.50E−05 μg/mL + venetoclax 3.0 μM",6.6 µM
same,Theoretical Venetoclax Dose,"MEC-1 cells; Exp 2, same effect as MOR00208 1.50E−05 μg/mL + venetoclax 6.5 μM",7.1 µM
same,Theoretical Venetoclax Dose,"MEC-1 cells; Exp 2, same effect as MOR00208 1.50E−05 μg/mL + venetoclax 10.0 μM",8.0 µM
same,Theoretical Venetoclax Dose,"MEC-1 cells; Exp 2, same effect as MOR00208 1.50E−06 μg/mL + venetoclax 6.5 μM",6.7 µM
same,Theoretical Venetoclax Dose,"MEC-1 cells; Exp 2, same effect as MOR00208 1.50E−06 μg/mL + venetoclax 10.0 μM",7.2 µM
same,Actual Venetoclax Effect,"MEC-1 cells; Exp 2, venetoclax 3.0 μM",19.9 % dead cells
same,Actual Venetoclax Effect,"MEC-1 cells; Exp 2, venetoclax 6.5 μM",32.4 % dead cells
same,Actual Venetoclax Effect,"MEC-1 cells; Exp 2, venetoclax 10.0 μM",73.9 % dead cells
same,Theoretical Venetoclax Dose,"MEC-1 cells; Exp 3, same effect as MOR00208 1.50E+00 μg/mL + venetoclax 3.0 μM",16.6 µM
same,Theoretical Venetoclax Dose,"MEC-1 cells; Exp 3, same effect as MOR00208 1.50E+00 μg/mL + venetoclax 6.5 μM",29.4 µM
same,Theoretical Venetoclax Dose,"MEC-1 cells; Exp 3, same effect as MOR00208 1.50E+00 μg/mL + venetoclax 10.0 μM",31.0 µM
same,Theoretical Venetoclax Dose,"MEC-1 cells; Exp 3, same effect as MOR00208 1.50E−02 μg/mL + venetoclax 3.0 μM",15.4 µM
same,Theoretical Venetoclax Dose,"MEC-1 cells; Exp 3, same effect as MOR00208 1.50E−02 μg/mL + venetoclax 6.5 μM",22.3 µM
same,Theoretical Venetoclax Dose,"MEC-1 cells; Exp 3, same effect as MOR00208 1.50E−02 μg/mL + venetoclax 10.0 μM",31.0 µM
same,Theoretical Venetoclax Dose,"MEC-1 cells; Exp 3, same effect as MOR00208 1.50E−03 μg/mL + venetoclax 3.0 μM",10.2 µM
same,Theoretical Venetoclax Dose,"MEC-1 cells; Exp 3, same effect as MOR00208 1.50E−03 μg/mL + venetoclax 6.5 μM",12.2 µM
same,Theoretical Venetoclax Dose,"MEC-1 cells; Exp 3, same effect as MOR00208 1.50E−03 μg/mL + venetoclax 10.0 μM",18.4 µM
same,Theoretical Venetoclax Dose,"MEC-1 cells; Exp 3, same effect as MOR00208 1.50E−04 μg/mL + venetoclax 3.0 μM",7.9 µM
same,Theoretical Venetoclax Dose,"MEC-1 cells; Exp 3, same effect as MOR00208 1.50E−04 μg/mL + venetoclax 6.5 μM",9.0 µM
same,Theoretical Venetoclax Dose,"MEC-1 cells; Exp 3, same effect as MOR00208 1.50E−04 μg/mL + venetoclax 10.0 μM",11.6 µM
same,Theoretical Venetoclax Dose,"MEC-1 cells; Exp 3, same effect as MOR00208 1.50E−05 μg/mL + venetoclax 3.0 μM",6.4 µM
same,Theoretical Venetoclax Dose,"MEC-1 cells; Exp 3, same effect as MOR00208 1.50E−05 μg/mL + venetoclax 6.5 μM",7.5 µM
same,Theoretical Venetoclax Dose,"MEC-1 cells; Exp 3, same effect as MOR00208 1.50E−05 μg/mL + venetoclax 10.0 μM",9.6 µM
same,Theoretical Venetoclax Dose,"MEC-1 cells; Exp 3, same effect as MOR00208 1.50E−06 μg/mL + venetoclax 6.5 μM",6.4 µM
same,Theoretical Venetoclax Dose,"MEC-1 cells; Exp 3, same effect as MOR00208 1.50E−06 μg/mL + venetoclax 10.0 μM",8.4 µM
same,Actual Venetoclax Effect,"MEC-1 cells; Exp 3, venetoclax 3.0 μM",7.7 % dead cells
same,Actual Venetoclax Effect,"MEC-1 cells; Exp 3, venetoclax 6.5 μM",16.3 % dead cells
same,Actual Venetoclax Effect,"MEC-1 cells; Exp 3, venetoclax 10.0 μM",48.1 % dead cells
same,Median Tumor Doubling Time,[1]; ABT-199 20 mg/kg p.o. daily,9.6^a Days
same,Median Survival (Days Post-Randomization),[1]; ABT-199 20 mg/kg p.o. daily,30.0^a Days
same,Median % Increase in Doubling Time (IDT),[1]; ABT-199 20 mg/kg p.o. daily,44%
same,Median % Increase in Lifespan (ILS),[1]; ABT-199 20 mg/kg p.o. daily,43%
same,Median Tumor Doubling Time,[1]; ABT-199 40 mg/kg p.o. daily,11.1^a Days
same,Median Survival (Days Post-Randomization),[1]; ABT-199 40 mg/kg p.o. daily,36.2^a Days
same,Median % Increase in Doubling Time (IDT),[1]; ABT-199 40 mg/kg p.o. daily,64%
same,Median % Increase in Lifespan (ILS),[1]; ABT-199 40 mg/kg p.o. daily,72%
